The target in one assay is hMC4R (Homo sapiens (Human), UniProt P32245). The assay is described as follows: Transactivation test: melanocortin receptors (pCRE-Luc luciferase reporter), hMC4R. In kind it is cell-based. To be noted: HEK293 transfected with pCRE-Luc and hMC4R; products tested alone (agonist), 6 h incubation; % activity vs NDP-MSH 10 nM; IA: inactive.
In the next assay the target is hMC1R (Homo sapiens (Human), UniProt Q01726). Put plainly: Transactivation test: melanocortin receptors (pCRE-Luc luciferase reporter), hMC1R. The class given is cell-based. To be noted: HEK293 transfected with pCRE-Luc and hMC1R; products tested alone (agonist), 6 h incubation; % activity vs NDP-MSH 10 nM; IA: inactive. The method in brief: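 HEK293 cells carrying the pCRE-Luc reporter and hMC1R vectors were grown in DMEM with 10% foetal calf serum at 37° C., 5% CO2, then plated at 5000 cells per well in 384-well plates in serum-free DMEM overnight. Products dissolved at 10 mM in DMSO were added alone as 10-point, 4-fold dilutions from 10 μM (0.1% DMSO) and incubated 6 h. Luciferase luminescence was read on Top-Count after lysis with luciferin, normalized to NDP-MSH 10 nM (100%) and cells alone (0%), and EC50 in nM derived with XLFit.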
Chain of hMC1R (Q01726 whole entry): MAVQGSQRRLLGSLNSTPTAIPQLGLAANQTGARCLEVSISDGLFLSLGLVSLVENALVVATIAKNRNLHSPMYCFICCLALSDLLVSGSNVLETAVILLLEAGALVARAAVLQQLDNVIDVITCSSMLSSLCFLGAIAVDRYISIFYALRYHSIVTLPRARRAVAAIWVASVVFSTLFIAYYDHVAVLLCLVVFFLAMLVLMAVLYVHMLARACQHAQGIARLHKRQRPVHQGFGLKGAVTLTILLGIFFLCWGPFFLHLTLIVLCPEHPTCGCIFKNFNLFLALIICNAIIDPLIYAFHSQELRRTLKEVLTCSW

Chain of hMC4R (P32245 whole entry): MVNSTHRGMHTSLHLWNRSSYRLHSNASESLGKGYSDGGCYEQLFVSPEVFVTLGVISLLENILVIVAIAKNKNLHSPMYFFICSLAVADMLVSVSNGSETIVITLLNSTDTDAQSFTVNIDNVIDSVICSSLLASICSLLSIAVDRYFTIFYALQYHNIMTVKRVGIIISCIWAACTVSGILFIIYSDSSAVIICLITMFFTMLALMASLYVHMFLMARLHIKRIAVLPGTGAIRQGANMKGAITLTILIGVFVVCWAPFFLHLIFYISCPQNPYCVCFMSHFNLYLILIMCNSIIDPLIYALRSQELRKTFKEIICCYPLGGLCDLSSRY

As a reminder, the EC50 is the concentration needed to bring the measured effect to its halfway point. Low readings indicate higher potency in that assay, high ones lower potency in that assay. As to `CC#CCOC1(c2ccccc2C)CN(C(=O)[C@@H](Cc2ccc(OC)cc2)NC(=O)CCc2nc[nH]c2C)C1` [Compound 76, N-[(R)-2-(3-But-2-ynyloxy-3-o-tolylazetidin-1-yl)-1-(4-methoxybenzyl)-2-oxoethyl]-3-(5-methyl-1H-imidazol-4-yl)propionamide], the EC50 came to 4000 nM at hMC4R and 30 nM at hMC1R.

As to `COc1ccc(C[C@@H](NC(=O)CCc2c[nH]cn2)C(=O)N2CC(OCC3CCCCC3)(c3ccccc3C)C2)cc1` [Compound 77, N-[(R)-2-(3-Cyclohexylmethoxy-3-o-tolylazetidin-1-yl)-1-(4-methoxybenzyl)-2-oxoethyl]-3-(1H-imidazol-4-yl)propionamide], the EC50 at hMC4R came to 2000 nM; at hMC1R, 120 nM.

Consider `COc1ccc(C[C@@H](NC(=O)CCc2c[nH]cn2)C(=O)N2CC(OCCCC(F)(F)F)(c3ccccc3C)C2)cc1` [Compound 78], for which the EC50 on hMC4R came out at 2000 nM; at hMC1R, 120 nM.

`COc1ccc(C[C@@H](NC(=O)CCc2nc[nH]c2C)C(=O)N2CC(OCC3CCC3)(c3ccccc3C)C2)cc1` [Compound 79, N-[(R)-2-(3-Cyclobutylmethoxy-3-o-tolylazetidin-1-yl)-1-(4-methoxybenzyl)-2-oxoethyl]-3-(5-methyl-1H-imidazol-4-yl)propionamide]: the values for the EC50 on hMC4R and on hMC1R were 1000 nM and 15 nM, respectively.

`COc1ccc(C[C@@H](NC(=O)CCc2nc[nH]c2C)C(=O)N2CC(OCC=C(C)C)(c3ccccc3C)C2)cc1` [Compound 80, N-[(R)-1-(4-Methoxybenzyl)-2-[3-(3-methylbut-2-enyloxy)-3-o-tolylazetidin-1-yl]-2-oxoethyl)-3-(5-methyl-1H-imidazol-4-yl)propionamide]: the EC50 on hMC4R turned out to be 4000 nM; on hMC1R, 15 nM.

The record behind these values is patent publication US9630949B2, “Oxoazetidine derivatives, process for the preparation thereof and use thereof in human medicine and in cosmetics” (GALDERMA RESEARCH & DEVELOPMENT, priority 2008, dated 2017).
